The values that follow come from ChEMBL document CHEMBL1201862, “PubChem BioAssay data set” (2004).

Activity calls are given as the source filed them.

Test [1] has as its target T1, Rac GTPase-activating protein 1 (Homo sapiens, UniProt Q9H0H5).
T1 sequence (Q9H0H5 whole entry): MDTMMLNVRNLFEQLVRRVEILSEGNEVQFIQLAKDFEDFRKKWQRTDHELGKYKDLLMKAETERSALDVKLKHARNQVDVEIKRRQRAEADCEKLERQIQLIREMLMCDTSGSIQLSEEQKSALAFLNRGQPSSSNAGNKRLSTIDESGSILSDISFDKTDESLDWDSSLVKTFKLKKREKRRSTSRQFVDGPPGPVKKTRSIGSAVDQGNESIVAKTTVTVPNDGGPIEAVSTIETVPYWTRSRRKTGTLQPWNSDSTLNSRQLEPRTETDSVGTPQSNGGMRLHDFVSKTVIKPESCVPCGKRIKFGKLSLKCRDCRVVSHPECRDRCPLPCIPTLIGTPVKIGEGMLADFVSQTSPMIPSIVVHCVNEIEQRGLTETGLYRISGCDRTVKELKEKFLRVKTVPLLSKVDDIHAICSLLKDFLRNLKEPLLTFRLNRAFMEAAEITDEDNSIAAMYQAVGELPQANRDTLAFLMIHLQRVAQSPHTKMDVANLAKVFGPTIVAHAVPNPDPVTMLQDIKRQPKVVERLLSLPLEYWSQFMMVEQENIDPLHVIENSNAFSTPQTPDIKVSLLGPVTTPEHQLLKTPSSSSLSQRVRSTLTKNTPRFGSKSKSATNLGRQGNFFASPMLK
Description: blockers of MgcRacGAP-driven Rac1 GTP hydrolysis – biochemical, ADP Hunter fluorescence, primary and confirmatory, confirmation (AID 624330). Type of test: functional.

For test [2], the target named is T2, RNA-binding protein pos-1 (Caenorhabditis elegans, UniProt G5EF15).
T2 sequence (G5EF15 whole entry): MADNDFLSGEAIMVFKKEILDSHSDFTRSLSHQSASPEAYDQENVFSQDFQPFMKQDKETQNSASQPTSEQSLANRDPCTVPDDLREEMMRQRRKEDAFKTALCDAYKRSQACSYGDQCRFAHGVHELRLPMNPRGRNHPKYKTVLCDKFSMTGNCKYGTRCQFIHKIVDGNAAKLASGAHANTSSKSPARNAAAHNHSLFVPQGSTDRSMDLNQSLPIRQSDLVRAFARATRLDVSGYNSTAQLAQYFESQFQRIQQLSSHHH
Description: disruptors of C. elegans POS-1 RNA interaction – biochemical, fluorescence polarization, dose response (AID 1964).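 Note: purified POS-1 fused to maltose binding protein made in E. coli; potency of compounds blocking POS-1 binding to fluorescent RNA.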

Test [3] deals with Glutathione-S-transferase (Schistosoma japonicum, UniProt Q26513). The test is described as follows: GST-antibody interaction or FRET quenching – biochemical, TR-FRET, artefact control for Vif-APOBEC3G degradation inhibitor project, dose response (AID 1117362). Type of test: functional.
Test [4] concerns the target Heat shock protein HSP 90-alpha (Homo sapiens, UniProt P07900). The format is functional, organism-based.
In test [5] the target is Matrix metalloproteinase-14 (Homo sapiens, UniProt P50281). Description: Dose Response confirmation of uHTS hits for a small molecule inhibitors of MT1-MMP activation in a fluorescence assay set 2. The format is functional.
The target in test [6] is Glycogen synthase kinase-3 beta (Homo sapiens, UniProt P49841). The format is functional.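 Note: value comes from a broad kinome profiling panel, with GSK3B as the panel member.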
Test [7] deals with Serine/threonine-protein kinase D2 (Homo sapiens, UniProt Q9BZL6). The format is functional.
Test [8] addresses Mitogen-activated protein kinase 13 (Homo sapiens, UniProt O15264). Type of test: functional.
The target in test [9] is Mitogen-activated protein kinase 12 (Homo sapiens, UniProt P53778). The format is functional.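 Note: measured as one member of a kinome-wide kinase profiling panel.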
Test [10] deals with Cyclin-dependent kinase 1 (Homo sapiens, UniProt P06493). Type of test: functional.
Another test deals with Focal adhesion kinase 1 (Homo sapiens, UniProt Q05397). Type of test: functional.
The target in test [11] is Glycogen synthase kinase-3 alpha (Homo sapiens, UniProt P49840). Type of test: functional.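 Note: GSK3A result taken from a broad kinome-wide kinase panel.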
Test [12] addresses Protein kinase C gamma type (Homo sapiens, UniProt P05129). The format is functional.
Test [13] concerns the target Tyrosine-protein kinase receptor UFO (Homo sapiens, UniProt P30530). The format is functional.
Test [14] addresses Serine/threonine-protein kinase BRSK1 (Homo sapiens, UniProt Q8TDC3). The format is functional.
The target in the next test is T3, Aminopeptidase N (Plasmodium falciparum FcB1/Columbia, UniProt O96935).
T3 sequence (O96935 whole entry): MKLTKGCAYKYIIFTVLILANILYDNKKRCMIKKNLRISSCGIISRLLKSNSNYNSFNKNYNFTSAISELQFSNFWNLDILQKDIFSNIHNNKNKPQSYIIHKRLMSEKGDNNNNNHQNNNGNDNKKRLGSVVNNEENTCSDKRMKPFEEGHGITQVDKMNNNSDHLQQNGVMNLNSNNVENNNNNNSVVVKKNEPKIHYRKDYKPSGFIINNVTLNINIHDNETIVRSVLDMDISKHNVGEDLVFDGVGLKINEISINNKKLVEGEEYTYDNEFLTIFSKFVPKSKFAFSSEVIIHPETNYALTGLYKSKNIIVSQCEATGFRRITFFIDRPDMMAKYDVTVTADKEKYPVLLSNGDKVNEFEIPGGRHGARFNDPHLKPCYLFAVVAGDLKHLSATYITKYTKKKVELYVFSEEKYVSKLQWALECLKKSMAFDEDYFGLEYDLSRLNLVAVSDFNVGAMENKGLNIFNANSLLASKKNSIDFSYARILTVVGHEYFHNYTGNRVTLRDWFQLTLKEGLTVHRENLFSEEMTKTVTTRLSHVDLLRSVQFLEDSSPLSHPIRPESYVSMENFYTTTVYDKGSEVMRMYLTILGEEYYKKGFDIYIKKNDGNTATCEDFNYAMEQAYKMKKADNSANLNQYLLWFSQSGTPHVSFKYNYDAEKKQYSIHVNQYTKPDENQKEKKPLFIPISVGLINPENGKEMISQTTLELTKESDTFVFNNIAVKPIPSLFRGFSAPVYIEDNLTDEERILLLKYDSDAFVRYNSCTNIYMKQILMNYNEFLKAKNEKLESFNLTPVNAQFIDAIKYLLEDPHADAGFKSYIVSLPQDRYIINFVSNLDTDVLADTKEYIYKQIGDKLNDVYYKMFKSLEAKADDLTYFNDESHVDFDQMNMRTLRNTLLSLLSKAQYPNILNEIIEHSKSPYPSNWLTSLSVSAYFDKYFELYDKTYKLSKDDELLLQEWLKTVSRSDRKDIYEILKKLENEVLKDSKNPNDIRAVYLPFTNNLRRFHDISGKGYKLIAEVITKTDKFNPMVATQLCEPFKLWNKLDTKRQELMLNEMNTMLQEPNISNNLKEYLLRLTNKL
Description: malaria alanyl aminopeptidase activity blockers – biochemical, fluorogenic H-Leu-NHMec substrate, 1536-well (AID 1445). Details: species or system Plasmodium falciparum 3D7, 3D7.

Chain of Tyrosine-protein kinase receptor UFO (P30530 whole entry): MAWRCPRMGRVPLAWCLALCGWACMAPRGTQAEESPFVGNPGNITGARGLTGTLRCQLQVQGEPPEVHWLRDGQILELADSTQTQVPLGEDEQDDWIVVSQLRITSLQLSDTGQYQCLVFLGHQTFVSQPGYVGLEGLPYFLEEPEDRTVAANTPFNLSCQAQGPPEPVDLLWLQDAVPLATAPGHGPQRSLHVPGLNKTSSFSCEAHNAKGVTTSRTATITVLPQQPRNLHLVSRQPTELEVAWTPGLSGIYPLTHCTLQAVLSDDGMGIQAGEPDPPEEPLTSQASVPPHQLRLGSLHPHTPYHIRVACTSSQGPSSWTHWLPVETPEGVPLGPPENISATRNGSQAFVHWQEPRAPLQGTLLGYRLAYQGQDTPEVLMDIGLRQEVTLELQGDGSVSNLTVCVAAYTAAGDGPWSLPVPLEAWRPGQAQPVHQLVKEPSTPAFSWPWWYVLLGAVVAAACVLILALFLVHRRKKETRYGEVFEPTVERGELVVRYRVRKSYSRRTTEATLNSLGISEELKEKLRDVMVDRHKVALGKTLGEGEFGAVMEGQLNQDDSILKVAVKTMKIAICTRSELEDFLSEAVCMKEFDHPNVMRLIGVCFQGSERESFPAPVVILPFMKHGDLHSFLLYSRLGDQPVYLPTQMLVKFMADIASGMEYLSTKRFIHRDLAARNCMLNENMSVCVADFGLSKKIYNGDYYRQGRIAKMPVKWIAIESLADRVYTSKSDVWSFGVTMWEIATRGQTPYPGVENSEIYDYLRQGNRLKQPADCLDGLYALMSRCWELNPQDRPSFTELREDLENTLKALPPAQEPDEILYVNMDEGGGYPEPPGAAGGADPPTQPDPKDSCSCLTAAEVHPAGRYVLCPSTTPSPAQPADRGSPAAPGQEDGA
Chain of Cyclin-dependent kinase 1 (P06493 whole entry): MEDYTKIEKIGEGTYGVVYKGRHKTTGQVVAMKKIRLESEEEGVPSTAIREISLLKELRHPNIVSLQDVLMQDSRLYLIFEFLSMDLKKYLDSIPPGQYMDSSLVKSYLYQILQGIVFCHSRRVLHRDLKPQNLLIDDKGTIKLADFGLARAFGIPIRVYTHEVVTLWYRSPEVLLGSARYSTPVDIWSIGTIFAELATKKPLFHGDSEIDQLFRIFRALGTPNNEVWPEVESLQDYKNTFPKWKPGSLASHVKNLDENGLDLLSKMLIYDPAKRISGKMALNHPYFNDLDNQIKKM
Chain of Mitogen-activated protein kinase 12 (P53778 whole entry): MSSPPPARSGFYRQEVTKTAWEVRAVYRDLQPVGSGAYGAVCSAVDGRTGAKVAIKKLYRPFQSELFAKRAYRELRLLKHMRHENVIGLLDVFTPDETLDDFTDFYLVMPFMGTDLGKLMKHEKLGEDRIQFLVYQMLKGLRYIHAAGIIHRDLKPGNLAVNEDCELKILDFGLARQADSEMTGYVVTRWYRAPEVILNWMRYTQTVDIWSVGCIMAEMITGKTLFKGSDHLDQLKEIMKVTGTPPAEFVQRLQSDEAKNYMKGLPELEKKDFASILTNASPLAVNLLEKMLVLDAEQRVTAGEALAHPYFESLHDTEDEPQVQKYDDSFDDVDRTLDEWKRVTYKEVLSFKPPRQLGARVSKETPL
Chain of Serine/threonine-protein kinase BRSK1 (Q8TDC3 whole entry): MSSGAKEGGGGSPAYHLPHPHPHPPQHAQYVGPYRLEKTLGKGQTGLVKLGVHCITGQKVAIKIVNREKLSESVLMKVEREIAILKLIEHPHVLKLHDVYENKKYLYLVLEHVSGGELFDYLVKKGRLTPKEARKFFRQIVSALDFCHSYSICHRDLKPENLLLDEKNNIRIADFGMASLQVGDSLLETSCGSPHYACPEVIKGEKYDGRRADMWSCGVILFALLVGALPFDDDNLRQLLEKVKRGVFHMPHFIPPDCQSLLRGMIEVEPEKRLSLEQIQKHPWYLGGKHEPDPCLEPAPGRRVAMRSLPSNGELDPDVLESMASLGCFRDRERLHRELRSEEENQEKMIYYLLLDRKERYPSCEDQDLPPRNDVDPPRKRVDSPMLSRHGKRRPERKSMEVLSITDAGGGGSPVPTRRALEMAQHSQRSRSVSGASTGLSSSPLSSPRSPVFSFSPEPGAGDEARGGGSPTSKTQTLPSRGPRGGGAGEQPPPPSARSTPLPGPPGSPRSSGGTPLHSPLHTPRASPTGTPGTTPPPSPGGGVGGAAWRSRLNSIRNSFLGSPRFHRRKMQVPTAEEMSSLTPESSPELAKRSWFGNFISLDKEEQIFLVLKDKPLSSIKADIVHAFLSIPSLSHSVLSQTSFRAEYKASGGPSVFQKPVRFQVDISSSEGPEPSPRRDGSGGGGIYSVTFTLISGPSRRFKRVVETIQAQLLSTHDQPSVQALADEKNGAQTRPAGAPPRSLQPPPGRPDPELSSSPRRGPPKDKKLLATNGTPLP
Chain of Glycogen synthase kinase-3 alpha (P49840 whole entry): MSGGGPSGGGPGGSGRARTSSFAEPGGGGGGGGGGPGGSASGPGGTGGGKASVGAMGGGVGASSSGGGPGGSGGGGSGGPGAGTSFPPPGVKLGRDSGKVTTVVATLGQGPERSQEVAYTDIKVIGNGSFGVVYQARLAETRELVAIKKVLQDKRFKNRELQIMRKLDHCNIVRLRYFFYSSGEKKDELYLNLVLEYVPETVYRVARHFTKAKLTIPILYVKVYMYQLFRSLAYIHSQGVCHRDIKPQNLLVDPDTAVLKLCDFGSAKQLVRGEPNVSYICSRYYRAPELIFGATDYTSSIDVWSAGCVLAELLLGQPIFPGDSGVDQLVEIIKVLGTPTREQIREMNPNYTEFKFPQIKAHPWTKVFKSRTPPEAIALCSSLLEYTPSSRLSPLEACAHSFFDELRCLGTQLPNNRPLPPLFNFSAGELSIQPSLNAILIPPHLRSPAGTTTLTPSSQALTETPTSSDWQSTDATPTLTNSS
Chain of Serine/threonine-protein kinase D2 (Q9BZL6 whole entry): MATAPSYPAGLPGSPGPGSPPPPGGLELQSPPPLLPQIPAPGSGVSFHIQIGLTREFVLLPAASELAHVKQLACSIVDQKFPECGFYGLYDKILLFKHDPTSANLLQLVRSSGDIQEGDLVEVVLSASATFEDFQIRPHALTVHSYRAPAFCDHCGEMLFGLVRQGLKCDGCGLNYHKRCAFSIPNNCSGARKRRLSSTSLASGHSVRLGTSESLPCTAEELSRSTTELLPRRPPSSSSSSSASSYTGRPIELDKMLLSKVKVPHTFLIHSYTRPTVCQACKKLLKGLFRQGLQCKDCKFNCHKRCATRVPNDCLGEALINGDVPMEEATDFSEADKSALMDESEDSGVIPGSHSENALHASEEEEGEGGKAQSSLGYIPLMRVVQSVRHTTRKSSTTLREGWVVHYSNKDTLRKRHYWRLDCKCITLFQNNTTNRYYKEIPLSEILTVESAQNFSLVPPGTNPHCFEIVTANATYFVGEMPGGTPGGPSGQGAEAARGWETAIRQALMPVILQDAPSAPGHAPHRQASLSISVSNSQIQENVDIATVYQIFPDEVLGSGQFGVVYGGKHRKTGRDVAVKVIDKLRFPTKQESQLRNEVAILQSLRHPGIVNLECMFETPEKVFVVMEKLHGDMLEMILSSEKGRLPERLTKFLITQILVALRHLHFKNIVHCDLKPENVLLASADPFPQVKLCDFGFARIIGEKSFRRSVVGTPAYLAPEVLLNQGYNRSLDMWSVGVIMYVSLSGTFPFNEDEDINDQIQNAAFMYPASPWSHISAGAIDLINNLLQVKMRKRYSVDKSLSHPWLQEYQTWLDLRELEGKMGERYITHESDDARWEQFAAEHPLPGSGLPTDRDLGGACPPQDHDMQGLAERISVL
Chain of Glutathione-S-transferase (Q26513 whole entry): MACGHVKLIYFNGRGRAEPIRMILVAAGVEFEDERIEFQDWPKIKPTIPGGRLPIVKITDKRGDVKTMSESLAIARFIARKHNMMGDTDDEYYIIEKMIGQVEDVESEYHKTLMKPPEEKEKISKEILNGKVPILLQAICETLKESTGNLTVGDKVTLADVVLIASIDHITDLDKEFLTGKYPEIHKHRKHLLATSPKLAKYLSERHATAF
Chain of Glycogen synthase kinase-3 beta (P49841 whole entry): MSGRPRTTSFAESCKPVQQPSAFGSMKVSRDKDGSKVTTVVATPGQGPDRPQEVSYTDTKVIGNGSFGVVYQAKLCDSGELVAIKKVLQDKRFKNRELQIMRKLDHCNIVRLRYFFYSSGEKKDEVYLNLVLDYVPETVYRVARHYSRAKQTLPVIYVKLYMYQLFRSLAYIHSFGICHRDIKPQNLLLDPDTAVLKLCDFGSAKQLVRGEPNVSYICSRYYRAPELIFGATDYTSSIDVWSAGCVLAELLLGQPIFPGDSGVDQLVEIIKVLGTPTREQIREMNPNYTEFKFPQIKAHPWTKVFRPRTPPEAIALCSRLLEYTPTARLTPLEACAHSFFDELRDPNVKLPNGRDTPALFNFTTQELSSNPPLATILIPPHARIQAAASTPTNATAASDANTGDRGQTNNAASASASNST
Chain of Mitogen-activated protein kinase 13 (O15264 whole entry): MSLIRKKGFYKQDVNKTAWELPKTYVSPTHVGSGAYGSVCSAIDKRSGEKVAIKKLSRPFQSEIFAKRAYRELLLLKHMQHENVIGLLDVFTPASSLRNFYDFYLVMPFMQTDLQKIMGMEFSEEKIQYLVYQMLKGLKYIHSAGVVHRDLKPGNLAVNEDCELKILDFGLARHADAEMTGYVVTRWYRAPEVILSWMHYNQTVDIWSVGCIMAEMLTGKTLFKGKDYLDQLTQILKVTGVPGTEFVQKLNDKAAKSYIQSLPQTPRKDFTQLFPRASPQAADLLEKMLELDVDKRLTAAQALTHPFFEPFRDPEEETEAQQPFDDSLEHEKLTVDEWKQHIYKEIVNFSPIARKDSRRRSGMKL

As to `O=C(O)C1Nc2c(O)cc(Cl)c([N+](=O)[O-])c2C2C=CCC12` (stereo not drawn), the IC50 (in general, the concentration that inhibits the measured activity by half) in test [1] was 27900 nM (active); in test [3], > 100000 nM (active). Also, in test [2], the EC50 (in general, the concentration needed to bring the measured effect to its halfway point) is 216000 nM (inconclusive).
As to `Oc1ccc(N=Nc2c(O)ccc3ccccc23)cc1`, the AC50 (usually the concentration at which the activity in the assay is half-maximal) in test [4] is 5610 nM (active). Also, the IC50 in test [5] was 22800 nM (inactive).
Regarding `Cc1n[nH]c2ccc(-c3cncc(OCC(N)Cc4cccc(Cl)c4)c3)cc12` (stereo not drawn), the Ki (commonly the dissociation constant of the complex between target and ligand, obtained from inhibition or displacement) in [6] was 15.8 nM (active); in [7] it was 39.8 nM (active); in test [8], 631 nM (active); in test [9] it was 398 nM (active); in [10] it was 39.8 nM (active); on Focal adhesion kinase 1, > 1580 nM (inactive). Moreover, the Ki in test [11] is 50.1 nM (active); in [12], 6.31 nM (active); in test [13], 158 nM (active); in test [14] it was 1580 nM (active). In addition, the pKi (usually −log10 of the Ki, conventionally taken in molar units) amounted to 7.4 in test [10] and 6.8 in test [13].
For `O=C1N=C(NS(=O)(=O)Cc2ccccc2)S/C1=C1\C(=O)Nc2ccccc21`, the IC50 on Aminopeptidase N is 17400 nM (active).
